Here are results for five molecules from publication PMC11428215, “Unveiling a New Antimicrobial Peptide with Efficacy against P. aeruginosa and K. pneumoniae from Mangrove-Derived Paenibacillus thiaminolyticus NNS5-6 and Genomic Analysis” (Antibiotics, 2024).

For data set [1] the following is noted: cited from earlier work. The text has this:
The AMP of Paenibacillus thiaminolyticus NNS5-6 was sensitive to proteinase K and trypsin, confirming its proteinaceous nature. […] The AMP was also stable across a wide pH range (pH 4.5–10) compared with extremely acidic and alkaline environments. This information could help inform temperature conditions and buffer choices during purification and guide the formulation development of drug delivery systems for suitable administration routes.

Data set [2] has as its system P. aeruginosa TISTR 357. In words: Compatibility with surfactants, residual antibacterial activity. The following applies: no AMP (same value in 1 h, 6 h and 12 h), agar well diffusion, % of non-treated AMP, mean ± SD, n = 3. It counts as physicochemical, Pseudomonas aeruginosa.
Experimental: The AMP was dissolved in sterile purified water and adjusted a final concentration to 16 µg/mL. The sensitivity of the AMP to temperatures of 37, 40, 50, 60, 80, and 100 °C, as well as autoclaving at 121 °C for 15 and 30 min was evaluated. The sensitivity of the AMP to proteolytic enzymes with different digesting characteristics was studied by incubating with a concentration of 1 mg/mL of proteinase K, trypsin, and α-chymotrypsin (Sigma-Aldrich, Warren, MI, USA). The compatibility of the AMP with surfactants was evaluated by exposing the AMP to 1% SDS or 1% Triton X-100 (AppliChem GmbH, Darmstadt, Germany). The degradation of the AMP under various pH conditions, including physiological and extended alkaline conditions, was evaluated by adjusting the pH of the solution to 1.2, 4.5, 6.8, 7.4, 8.0, 10.0, 12.0, and 14.0. After incubation, the pH of the AMP solution was neutralized to the original pH before being assessed for antibacterial activity. The antibacterial assay against P. aeruginosa TISTR 357 was conducted using the agar well diffusion assay in triplicate. The stability profiles are presented as the percentage of the residual activity compared with the non-treatment conditions (mean ± SD), and statistical significance was determined by the Student’s t-test at a p-value < 0.05.
Data set [3] relates to V. parahaemolyticus TISTR 1596. In words: Agar well diffusion, antibacterial spectrum. It counts as cell-based, Vibrio parahaemolyticus. The procedure: (§1) The active isolates from the agar overlay assay were transferred into broth media identical to that used during the initial isolation. The cultures were incubated at 30 °C with shaking at 150 rpm for 18 h. The optical density of the starter culture was adjusted to a turbidity of 0.1 OD at 625 nm using a 0.85% sterile NaCl solution before transferring 1 mL of the culture into 49 mL of fresh broth. The inoculum was then incubated at 30 °C with shaking at 150 rpm for 24 h. The CFS was obtained by centrifugation at 10,000× g at 4 °C for 15 min and filtered through a 0.2 µm sterile cellulose acetate syringe filter. The antibacterial activity of the CFS derived from each isolate was investigated using P. aeruginosa TISTR 357, K. pneumoniae TISTR 1383, E. coli TISTR 887, S. typhimurium TISTR 1469, V. parahaemolyticus TISTR 1596, and S. aureus TISTR 517 from the Thailand Institute of Scientific and Technological Research (TISTR), Thailand. The antibiotic-resistant strain, MRSA strain 2468, was kindly provided by the medical technology laboratory at the School of the Allied Health Sciences, Walailak University, Thailand. The microbial indicators were incubated at 37 °C for 18 h on MH agar. […] The experiment was conducted in triplicate, and the mean ± SD of the diameters of the inhibition zones was measured.

In data set [4] the test system is MRSA Strain 2468. In words: Agar well diffusion, antibacterial spectrum. In kind it is cell-based, methicillin-resistant Staphylococcus aureus. How it is done:
as §1

Data set [5] has as its system S. aureus TISTR 517. In words: Agar well diffusion, antibacterial spectrum. It counts as cell-based, Staphylococcus aureus. How it is done:
as §1

The test system of data set [6] is S. typhimurium TISTR 1469. In words: Agar well diffusion, antibacterial spectrum. In kind it is cell-based, Salmonella typhimurium. How it is done:
as §1

For data set [7], the system named is E. coli TISTR 887. In words: Agar well diffusion, antibacterial spectrum. It counts as cell-based, Escherichia coli. The procedure: as §1
For data set [8], the system named is P. aeruginosa TISTR 357. In words: Agar well diffusion, antibacterial spectrum. It counts as cell-based, Pseudomonas aeruginosa. The procedure:
as §1

The subject of data set [9] is K. pneumoniae TISTR 1383. In words: Agar well diffusion, antibacterial spectrum. In kind it is cell-based, Klebsiella pneumoniae. How it is done: as §1
The test system of data set [10] is K. pneumoniae TISTR 1383. In kind it is cell-based, Klebsiella pneumoniae. Particulars: 37 °C 24 h, triplicate. How it is done:
(§2) The MIC and MBC of the purified AMP were determined using the broth microdilution method following the guidance provided by the Clinical and Laboratory Standards Institute (CLSI). P. aeruginosa TISTR 357 and K. pneumoniae TISTR 1383 were cultured on MH agar and incubated at 37 °C for 18 h. A single colony of the tested bacteria was suspended in 0.85% NaCl until the suspension turbidity reached an OD of 0.1 at 625 nm. The cells were then diluted to 5 × 10^6 CFU/mL using cation-adjusted Mueller Hinton broth (CAMHB). The diluted cell suspension of 10 µL was transferred into each well of a 96-well plate with a final volume of 100 µL per well. The AMP was added to achieve final concentrations ranging from 0.125 to 64 µg/mL. Colistin was used as the positive control, while antibiotic-free samples were used as negative controls. The 96-well plate was incubated at 37 °C for 24 h. Each strain was tested in triplicate. […] Subsequently, 100 µL of each dilution was spread on MH agar and then incubated at 37 °C for 24 h. The MBC was identified as the lowest concentration at which no bacterial colony growth was observed on the agar plate.

Data set [11] concerns P. aeruginosa TISTR 357. It counts as cell-based, Pseudomonas aeruginosa. Particulars: 37 °C 24 h, triplicate. How it is done: as §2
The mark [12] stands for this setting: plated on MH agar after microdilution.
Setting [13] is: agar well diffusion on MH agar, 9 mm wells, 37 °C 18 h, CFS 100 µL, vancomycin 30 µg, colistin 1 µg, mean ± SD, n = 3.

For fusaricidin A, the “sensitivity to protease treatment” value in data set [1] was “insensitive to protease treatment”. Also, the “pH range over which antimicrobial activity is retained” value in data set [1] (fusaricidin A produced by Paenibacillus bovis sp. nov BD3526) is on record as 2.0 to 9.0.

Consider Triton X-100 [reference compound], for which the “antibacterial activity of surfactant alone against P. aeruginosa TISTR 357, given as % residual activity” value in data set [2] (1% Triton X-100 alone) worked out at 126.83 ± 2.72 %.

Turning to `CN[C@H](CC(C)C)C(=O)N[C@H]1C(=O)N[C@@H](CC(N)=O)C(=O)N[C@H]2C(=O)N[C@H]3C(=O)N[C@H](C(=O)N[C@H](C(=O)O)c4cc(O)cc(O)c4-c4cc3ccc4O)[C@H](O)c3ccc(c(Cl)c3)Oc3cc2cc(c3O[C@@H]2O[C@H](CO)[C@@H](O)[C@H](O)[C@H]2O[C@H]2C[C@](C)(N)[C@H](O)[C@H](C)O2)Oc2ccc(cc2Cl)[C@H]1O` [Vancomycin], the zone of inhibition at 30 µg/disc in data set [3] (Vibrio parahaemolyticus, TISTR1596, 18 h) was found to be 0 mm; in data set [4] (Staphylococcus aureus, MRSA, 18 h) it was 21.8 ± 0.78 mm; in [5] (Staphylococcus aureus, TISTR517, 18 h), 21.6 ± 0.51 mm; in data set [6] (Salmonella enterica, 18 h), 0 mm; in data set [7] (Escherichia coli, TISTR887, 18 h), 0 mm; in data set [8] (Pseudomonas aeruginosa, TISTR357, 18 h), 0 mm. The zone of inhibition at 30 µg/disc in data set [9] (Klebsiella pneumoniae, TISTR1383, 18 h) amounted to 0 mm.

For Colistin, the MIC in [10] (broth microdilution, CAMHB) is listed as 1 µg/mL; in data set [11] (broth microdilution, CAMHB), 1 µg/mL. Moreover, the MBC in data set [10] (setting [12]) and in data set [11] (setting [12]) was 1 µg/mL in each case. For the same molecule, the “Zone of Inhibition” value in [3] (setting [13]) came to 18.8 ± 0.76 mm; in [4] (setting [13]), 0.00 ± 0.00 mm; in data set [5] (setting [13]), 0.00 ± 0.00 mm; in [6] (setting [13]) it was 20.4 ± 0.89 mm; in [7] (setting [13]) it was 18.13 ± 0.88 mm; in data set [8] (setting [13]) it was 18.05 ± 0.67 mm. The “Zone of Inhibition” value in data set [9] (setting [13]) is recorded as 18.81 ± 0.39 mm.

For the molecule `CCCCCCCCCCCCOS(=O)(=O)[O-].[Na+]` [SDS, reference compound], the “antibacterial activity of surfactant alone against P. aeruginosa TISTR 357, given as % residual activity” value in [2] (1% SDS alone) was found to be 121.76 ± 2.42 %.
